{
  "source": "patent EP0429187A1",
  "about": "“Enhanced bioavailability adsorbates” (ELAN C[…].L.C., priority 1989, dated 1991)",
  "key": {"[1]": {"test": "Mean urinary recoveries for DHEA base in the comparison study", "assay_type": "in vivo", "settings": "human volunteers"}, "[2]": {"test": "Comparison of enhanced bioavailability DHEA adsorbate with micronised DHEA: plasma levels (AUC) of DHEA base and sulphate", "assay_type": "in vivo", "settings": "reference AUC arbitrarily denoted as 100%, 500 mg oral every 8 hours over 24 hours, 9 healthy male human volunteers, read-out: F = absolute bioavailability (DHEA Base)", "experimental": "In this study an enhanced bioavailability DHEA adsorbate powder of the type prepared in Example 2 was compared with standard micronised DHEA in capsule form. For the formulation in accordance with the invention (hereinafter referred to as 'test') the dose administered was 500 mg of DHEA as adsorbate in powder-sachet form. The standard micronised DHEA (hereinafter referred to as 'reference') was administered as 2 x 250 mg capsules. […] In the study, the test substance was compared in a group of 9 healthy male human volunteers against the reference substance. The dosage regime was 500 mg every 8 hours over a 24 hour period. Plasma samples were taken in each case at intervals up to and including 24 hours post initial dosing and the samples were assayed for DHEA (base and sulphate) levels. DHEA sulphate levels were measured because a substantial portion of the DHEA is converted to the sulphate form in vivo. For the reference substance, the area under the curve (AUC) value are arbitrarily denoted as 100%. The AUC value was then compared and assigned an absolute bioavailability value (%) using the 100% as baseline."}},
  "data": [
    {"smiles": "C[C@]12CC[C@H](O)CC1=CC[C@@H]1[C@@H]2CC[C@]2(C)C(=O)CC[C@@H]12", "note": "[REFERENCE, dehydroepiandrosterone]", "values": [
      {"measurement": "Mean Urinary Recoveries for DHEA Base", "setting": "[1]; Day 0", "result": "22.55 ± 8.50", "unit": "mg/24 h."},
      {"measurement": "Mean Urinary Recoveries for DHEA Base", "setting": "[1]; Day 1", "result": "460.67 ± 179.87", "unit": "mg/24 h."},
      {"measurement": "Mean Urinary Recoveries for DHEA Base", "setting": "[1]; Day 2", "result": "799.55 ± 191.90", "unit": "mg/24 h."},
      {"measurement": "Mean Urinary Recoveries for DHEA Base", "setting": "[1]; Day 3", "result": "745.88 ± 179.92", "unit": "mg/24 h."},
      {"measurement": "Mean Urinary Recoveries for DHEA Base", "setting": "[1]; Day 4", "result": "694.33 ± 162.07", "unit": "mg/24 h."},
      {"measurement": "Mean Urinary Recoveries for DHEA Base", "setting": "[1]; Day 5", "result": "800.22 ± 156.19", "unit": "mg/24 h."},
      {"measurement": "bioavailability", "setting": "[2]", "result": 100, "unit": "%"}
    ]}
  ]
}
